Results taken from patent publication US20050020553A1, “Prevention of miscarriage with immunomodulating non-endogenous gestagen compounds” (Solvay Pharmaceuticals GmbH, priority 2001, published 2005).

How the values were obtained:
[1] = test system: Th1 cytokine production to trophoblast; settings: women with recurrent pregnancy loss; Choi et al., Human Reproduction 15/1 (2000); cited from earlier work
[2] = test system: peripheral blood mononuclear cells (=PBMC); experiment: Mitogen-induced stimulation of PBMC from women with unexplained habitual abortion, cytokine levels by ELISA; assay type: cell-based, human (women); settings: for levels of IL-4 / levels of IL-6 / production of the Th1 cytokine IFN-gamma: PHA-stimulated PBMC from women with unexplained habitual abortion, 96 hours in culture, ELISA
Source text: The effects of dydrogesterone on Th1 and Th2 cytokine profiles produced by mitogen-stimulated peripheral blood mononuclear cells (=PBMC) were established. The effects of dydrogesterone on Th1 and Th2 cytokine production were investigated in peripheral blood lymphocytes from women with unexplained habitual abortion. The peripheral mononuclear cells were stimulated with mitogen (phytohaemagglutinin) in vitro, in the presence and absence of dydrogesterone. The levels of cytokines secreted were measured after 96 hours in culture. […] Several studies have pointed to a deviation of cytokine profiles in women when during pregnancy. Pregnancy is associated with a shift towards Th2 bias, evinced by changes in peripheral T cells, by cytokine production by peripheral lymphocytes and by cytokine changes at the maternal-fetal interface. Unexplained recurrent spontaneous abortion (URSA) seems to be associated with a stronger bias towards Th1 cytokines. Women who have earlier been gone through URSA may therefore be regarded as a pre-selected group of patients that will typically respond to an immunological stimulation by showing a Th1 dominated pattern of immune response. The pharmacological test was therefore performed with a suitable URSA group which comprised of women admitted with spontaneous abortion for evacuation, (i) who have had at least two previous unexplained miscarriages, (ii) who were currently undergoing at least a 3rd abortion and (iii) who had been fully investigated. The relationship between habitual abortion and cytokine production response in 54 women with normal pregnancy (and at least 3 previous normal pregnancies) and 23 women with a history of habitual abortion of unexplained aetiology (URSA group) has been investigated. Peripheral blood was obtained by venipuncture from the abortion group on the day of abortion. PBMC is separated by Ficoll-paque (Pharmacia Biotech, Sweden) density gradient centrifugation, suspended in RPMI medium (=“Roswell Park Memorial Institute”-medium; obtained from GIBCO/BRL, USA) containing 10% fetal calf serum, aliquoted into 96 well tissue culture plates at a density of 100.000 cells per well and then stimulated with the mitogen phytohemagglutinin (=PHA, Sigma Chemicals, USA) at a concentration of […] for a period of 96 hours, with autologous placental antigens or with trophoblast antigens. Progesterone, dydrogesterone (Duphaston®) and RU486 (=mifepristone) was added in different combinations as described below. Progesterone was tested at concentrations of […]. RU486 was tested at equivalent concentrations. Culture supernatants were harvested at 96 hours for determination of the levels of cytokines secreted by the PBMC into the supernatants. Cytokine levels were determined in the supernatants by enzyme-linked immunosorbent assay (=ELISA). Each sample was tested in the following manner: • PBMC+mitogen • PBMC+mitogen+progesterone • PBMC+mitogen+progesterone+RU486 • PBMC+mitogen+dydrogesterone • PBMC+mitogen+dydrogesterone+RU486 • PBMC+mitogen+Carrier • PBMC+mitogen+Carrier+RU486 Determination of cytokine levels by ELISA: Th1 cytokines TNF-α and IFN-γ, and Th2 cytokines IL-4, IL-6 and IL-10 were evaluated in these samples by ELISA using kits that were obtained from Immunotech SA, France. These consisted of “sandwich ELISA”. Briefly, the first step leads to the capture of the relevant cytokine by monoclonal anti-cytokine antibodies bound to the wells of microtiter plates. In the second step, a second biotinylated monoclonal is added together with streptavidin-enzyme (peroxidase or alkaline phosphatase) conjugate. The biotinylated antibody binds to the solid phase antibody-antigen complex, and in turn, binds the conjugate. After incubation the wells are washed and the binding of the streptavidin-enzyme via biotin is followed by the addition of a chromogenic substrate. The intensity of the coloration produced is proportional to the concentration of the cytokine in the sample. […]

[3] = biological target: T1, human progesterone receptor (Homo sapiens, UniProt P06401); settings: cited from earlier work
T1 sequence (P06401 1-933): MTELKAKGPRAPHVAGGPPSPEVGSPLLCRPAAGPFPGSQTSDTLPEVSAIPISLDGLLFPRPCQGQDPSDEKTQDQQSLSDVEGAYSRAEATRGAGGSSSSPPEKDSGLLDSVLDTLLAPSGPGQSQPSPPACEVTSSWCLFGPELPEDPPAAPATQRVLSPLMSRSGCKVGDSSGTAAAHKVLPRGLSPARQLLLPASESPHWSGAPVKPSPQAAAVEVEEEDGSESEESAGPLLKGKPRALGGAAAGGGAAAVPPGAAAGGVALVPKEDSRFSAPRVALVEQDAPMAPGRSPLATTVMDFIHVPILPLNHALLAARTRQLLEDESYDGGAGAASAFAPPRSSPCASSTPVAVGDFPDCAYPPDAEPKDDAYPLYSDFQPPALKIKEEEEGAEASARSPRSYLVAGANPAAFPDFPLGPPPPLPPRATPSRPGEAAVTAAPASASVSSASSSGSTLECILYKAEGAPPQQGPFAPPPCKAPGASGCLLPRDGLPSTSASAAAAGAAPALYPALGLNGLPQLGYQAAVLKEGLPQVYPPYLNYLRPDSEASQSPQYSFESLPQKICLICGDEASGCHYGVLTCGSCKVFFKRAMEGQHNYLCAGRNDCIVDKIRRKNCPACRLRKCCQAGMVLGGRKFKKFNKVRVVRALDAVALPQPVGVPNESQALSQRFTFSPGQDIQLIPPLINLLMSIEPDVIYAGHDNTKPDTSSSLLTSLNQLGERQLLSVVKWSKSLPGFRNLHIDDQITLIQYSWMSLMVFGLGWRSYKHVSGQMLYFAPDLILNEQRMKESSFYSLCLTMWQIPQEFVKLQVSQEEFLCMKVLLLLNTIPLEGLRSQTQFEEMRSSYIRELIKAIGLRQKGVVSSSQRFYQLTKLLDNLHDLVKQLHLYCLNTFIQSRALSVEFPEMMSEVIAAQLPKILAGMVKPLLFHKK

[4] = in vivo; cited from earlier work
pregnant mice = experiment: Murine stress-induced (ultrasound) abortion model; assay type: in vivo
Source text: The results of the pharmacological test method given above can also be confirmed in an in vivo test model involving pregnant mice. […] Pregnant mice were exposed to ultrasound on day 5 of gestation. This stress increased the abortion rate of these mice from around 12% to 44%. Treatment with dydrogesterone reduced the abortion in a dose-related manner to as low as 5%.

[5] = ex-vivo, women with spontaneous abortion and habitual abortion

Compound | in-vitro embryotoxic Th1 cytokine production to trophoblast [1] | levels of IL-4 [2] | levels of IL-6 [2] | production of the Th1 cytokine IFN-gamma [2] | levels of IL-4 ([2]; listed as Dydrogesterone) | levels of IL-6 ([2]; listed as Dydrogesterone) | production of the Th1 cytokine IFN-gamma ([2]; listed as Dydrogesterone) | Th1/Th2 bias [2, 5] | activity of lymphocytes [2, 5] | release of progesterone induced blocking factor (PIBF) [2, 5] | selectivity as progesterone receptor agonist [3] | androgenic effects in the mother (hirsutism, voice changes, acne) [4] | masculinizing effect on the female fetus [4] | Th1/Th2 cytokine production (pregnant mice; murine stress-induced abortion model) | level of IL-4 (pregnant mice; pregnant mice exposed to ultrasound on day 5 of gestation) | abortion rate (pregnant mice; pregnant mice exposed to ultrasound on day 5 of gestation, stress raised rate from around 12% to 44%, dose-related)
CC(=O)[C@H]1CC[C@H]2[C@@H]3CCC4=CC(=O)CC[C@]4(C)[C@H]3CC[C@]12C [progesterone] | inhibits | – | – | – | – | – | – | – | – | – | – | – | – | – | – | –
CC(=O)[C@H]1CC[C@H]2[C@@H]3C=CC4=CC(=O)CC[C@@]4(C)[C@@H]3CC[C@]12C [dydrogesterone] | – | marked increase | marked increase | reduction | increased | increased | strongly suppressed | shift from a Th1 towards a Th2 bias | reduced the activity of lymphocytes | increased release | highly selective progesterone receptor agonist | no androgenic effects | no masculinizing effect | shift from Th1 to Th2-cytokine production | increased level | ≥ 5%
